Measurements from patent US20220289688A1, “RNA-TARGETING LIGANDS, COMPOSITIONS THEREOF, AND METHODS OF MAKING AND USING THE SAME” (THE UNIVERSITY OF NORTH CAROLINA AT CHAPEL HILL, priority 2019, published 2022).
Values joined by “and” are separate entries in the source; they are usually repeats but may differ in a detail not shown here. Equal values may be shown once. “Also recorded” adds a separate entry of the source. Read-outs that look alike come from different tables or passages of the source.

Key:
[1] = biological target: TPP riboswitch RNA; assay: Isothermal titration calorimetry (ITC), ligand titrated into RNA; assay type: binding; details: for Kd / Binding affinity relative to a named comparator compound / Kd (μM): ITC; for Effect of modification on RNA binding affinity (FIG. 5): linked fragments 17 and 31, dissociation constants by ITC; for Binding affinity relative to a named comparator compound: comparator named in value
[2] = Solubility at concentrations required for ITC; assay type: physicochemical; details: ITC buffer
Procedure: (§1) ITC experiments were performed using a Microcal PEAQ-ITC automated instrument (Malvern Analytical) under RNase-free conditions^41. In vitro transcribed RNA was exchanged into folding buffer containing 100 mM CHES, pH 8.0, 200 mM potassium acetate, and 3 mM MgCl2 using centrifugal concentration (Amicon Ultra centrifugal filters, 10K MWCO, Millipore-Sigma). Ligands were dissolved into the same buffer (to minimize heat of mixing upon addition of ligand to RNA) at a concentration 10-20 times the desired experimental concentration of RNA. RNA concentration was quantified (Nanodrop UV-VIS spectrometer; ThermoFisher Scientific), diluted to 1-10 times the expected […] in buffer, and the diluted RNA was re-quantified to confirm the final experimental RNA concentration. The RNA, diluted in folding buffer, was heated at 65° C. for 5 minutes, placed on ice for 5 minutes, and allowed to fold at 37° C. for 15 minutes. if needed, the primary binding ligand (for example, 2) was pre-bound to the RNA by adding 0.1 volume at 10 times the desired final concentration of the bound ligand, followed by incubation at room temperature for 10 minutes.

[3] = tested on: TPP riboswitch region of the screening construct; assay: SHAPE second-fragment screen of RNA construct pre-bound to primary fragment; assay type: binding; details: RNA pre-bound to 2 or S12; fragment 1 mM
Procedure: For the first-fragment-ligand screen, 5 pmol of RNA per well were diluted to […] in RNase-free water on a 4° C. cooling block. The plate was heated at 95° C. for 2 minutes, immediately followed by snap cooling at 4° C. for 5 minutes. To each well was added 19.6 μL of 2× folding buffer (final concentrations 50 mM HEPES pH 8.0, 200 mM potassium acetate, and 10 mM MgCl2), and plates were incubated at 37° C. for 30 minutes. […] To combine the target RNA with fragment, 24.3 μL of RNA solution or RNA plus primary binding fragment were added to wells containing 2.7 μL of 10× screening fragments (in DMSO to yield a final fragment concentration of 1 mM). Solutions were mixed thoroughly by pipetting and incubated for 10 minutes at 37° C. […]
Once screening of test fragments is complete, statistical tests are carried out to identify differences in modification rates of a given nucleotide. […] That is, if m1 modifications of a tested nucleotide were counted among n1 reads in sample 1 and m2 modifications were counted among n2 reads in sample 2, the tested null hypothesis predicts that among all the counted modifications (m1+m2), the proportion of modifications in sample 1 will be p1=n1/(n1+n2). […]

[4] = tested on: 2-TPP RNA complex; assay: ITC with primary binding fragment pre-bound to the RNA; details: for Binding cooperativity with 2: ITC in presence and absence of pre-bound 2; for Kd: ITC
Procedure: as §1
Each ITC experiment involved two runs: one in which the ligand was titrated into RNA (the experimental trace) and one in which the same ligand was titrated into buffer (the control trace). ITC experiments were performed using the following parameters: 25° C. cell temperature, 8 μCal/sec reference power, 750 RPM stirring speed, high feedback mode, 0.2 μL initial injection, followed by 19 injections of 2 μL. Each injection required 4 seconds to complete, and there was a 180-second spacing between injections.
ITC data was analyzed using MicroCal PEAQ-ITC Analysis Software (Malvern Analytical). First, the baseline for each injection peak was manually adjusted to resolve any incorrectly selected injection endpoints. Second, the control trace was subtracted from the experimental trace by point-to-point subtraction. Third, a least-squares regression line was fit to the data using the Levenberg-Marquardt algorithm. In the case of weakly binding ligands (>500 μM), N was manually set to 1.0 to enable fitting of low c-value curves.

[5] = primary-screen hits, Table 1, value ± error, read-out: Kd
[6] = fragment 2 analogs, pendant groups, Table 2B, read-out: Kd
[7] = no ligand pre-bound, Table 6, read-out: Kd (mM) No ligand bound
[8] = primary fragment pre-bound to TPP riboswitch RNA, Table 6, read-out: Kd (mM) 5 pre-bound
[9] = fragment 5 analogs, pendant groups, Table 4, read-out: Kd
[10] = fragment 5 analogs, pendant groups, Table 4

## C#Cc1ccc2nccnc2c1 [Compound 1]
[1]; [5]
  Kd: 11 ± 0.2 µM

## Nc1ccc2nccnc2c1 [Compound 2]
[1]; fragment 2 analogs, quinoxaline core modifications, Table 2A, read-out: Kd
  Kd: 25 µM
[1]; [5]
  Kd: 25 ± 6 µM
[1]; read-out: Kd
  Kd: 25 µM

## COc1ccc2nsnc2c1 [Compound 3]
[1]; [5]
  Kd: 95 ± 3 µM

## NCc1ccc(-c2csnn2)cc1 [Compound 4]
[1]; [5]
  Kd: 220 ± 10 µM

## COC(=O)c1ccc(Cl)nc1 [Compound 5]
[1]; [5]
  Kd: 265 ± 80 µM

## c1cc2[nH]cnc2cn1 [Compound 6]
[1]; fragment 5 analogs, pyridine core modifications, Table 3, read-out: Kd
  Kd: 266 µM
[1]; [5]
  Kd: 650 ± 100 µM

## O=C1CC(C(F)(F)F)=NN1 [Compound 7]
[2]
  Solubility at concentrations required for ITC: insoluble

## O=C(O)c1cncc(-c2cccs2)c1 [Compound 8]
[2]
  Solubility at concentrations required for ITC: insoluble

## Cc1ncc(C[n+]2csc(CCOP(=O)([O-])OP(=O)(O)O)c2C)c(N)n1 [Compound 9, thiamine pyrophosphate, reference compound]
[1]; [5]
  Kd: 0.029 ± 0.002 µM

## OCc1ccc2nccnc2c1 [Compound 15]
[1]; [6]
  Kd: 18 µM

## O=Cc1ccc2nccnc2c1 [Compound 18]
[1]; [6]
  Kd: 35 µM

## COC(=O)c1ccc2nccnc2c1 [Compound 19]
[1]; [6]
  Kd: 58 µM
[1]; read-out: Kd
  Kd: 5 µM

## Cc1ccc2nccnc2c1 [Compound 20]
[1]; [6]
  Kd: 33 µM

## Nc1cccc2nccnc12 [Compound 21]
[1]; [6]
  Kd: 75 µM

## Fc1cccc2nccnc12 [Compound 23]
[1]; [6]
  Kd: 220 µM

## Nc1cnc2ccccc2n1 [Compound 24]
[1]; [6]
  Kd: 379 µM

## NC(=O)c1cnc2ccccc2n1 [Compound 25]
[1]; [6]
  Kd: 600 µM

## Cc1cc(N2CCNCC2)c2ccccc2n1 [Compound 28]
[2]
  Solubility at concentrations required for ITC: insoluble

## O=C(O)c1csc2ccc(Cl)cc12 [Compound 29]
[3]
  SHAPE result of second-round screen: caused changes in other areas of the RNA consistent with nonspecific interactions

## c1cc(N2CCNCC2)ccn1 [Compound 31]
[1]; fragment alone, read-out: Kd
  Kd: 10000 µM and ≥ 10000 µM
[1]; [7]
  Kd: > 10000 µM
[4]
  Binding cooperativity with 2: clear, but modest, binding cooperativity with 2
[4]; 2 pre-bound to the TPP riboswitch RNA, read-out: Kd
  Kd: ~3 mM
[4]; [8]
  Kd: 3 mM

## Cc1cnccc1N1CCNCC1 [Compound 32]
[1]; [7]
  Kd: > 10000 µM
[4]
  Binding cooperativity with 2: clear, but modest, binding cooperativity with 2
[4]; [8]
  Kd: 4 mM

## NCCCN1CCN(c2ccncc2)CC1 [Compound 33]
[1]; [7]
  Kd: > 10000 µM

## Nc1cnccc1N1CCNCC1 [Compound 34]
[1]; [7]
  Kd: > 10000 µM

## O=C(CCC(=O)Nc1ccc2nccnc2c1)NO [Compound 35]
[1]
  Effect of modification on RNA binding affinity (FIG. 5): negative modification

## O=C(CCNc1ccc2nccnc2c1)NO [Compound 36]
[1]
  Binding affinity relative to a named comparator compound: fivefold higher binding affinity than the amide-linked version; also recorded: affinity similar to that of the parent fragment 17
  Effect of modification on RNA binding affinity (FIG. 5): increase RNA binding affinity

## c1cc(N2CCCCC2)c(NCc2ccc3nccnc3c2)cn1 [Compound 37]
[1]; read-out: Kd (affinity)
  Kd: 0.625 µM
[1]
  Effect of modification on RNA binding affinity (FIG. 5): increase RNA binding affinity

## CN(C)CCNCc1ccc2nccnc2c1 [Compound 38]
[1]
  Binding affinity relative to a named comparator compound: reduced affinity relative to compound 37
  Effect of modification on RNA binding affinity (FIG. 5): neutral modifications

## c1cc(N2CCNCC2)c(CNCc2ccc3nccnc3c2)cn1 [Compound 39]
[1]
  Binding affinity relative to a named comparator compound: reduces affinity relative to compound 37
  Effect of modification on RNA binding affinity (FIG. 5): negative modification

## c1cnc2cc(CNc3cncc(N4CCNCC4)c3)ccc2n1 [Compound 40]
[1]
  Binding affinity relative to a named comparator compound: reduces affinity relative to compound 37
  Effect of modification on RNA binding affinity (FIG. 5): negative modification

## COC(=O)c1ccc(Br)cc1 [compound 85]
[1]; [9]
  Kd: 440 µM

## COC(=O)c1ccc([N+](=O)[O-])cc1 [compound 86]
[1]; [9]
  Kd: 390 µM

## CCOc1ccc(C(=O)OC)cc1 [compound 87]
[1]; [9]
  Kd: 1800 µM

## COC(=O)c1ccc(N)cc1 [compound 88]
[1]; [9]
  Kd: 1100 µM

## COC(=O)c1ccc(C(F)(F)F)cc1 [compound 89]
[1]; [10]
  Kd (μM): no binding

## COC(=O)c1ccc(Oc2ccccc2)cc1 [compound 810]
[1]; [10]
  Kd (μM): no binding

## COC(=O)c1ccc(Cl)c(Cl)c1 [compound 811]
[1]; [9]
  Kd: 820 µM

## COC(=O)c1ccc(Cl)cc1Cl [compound 812]
[1]
  Binding affinity relative to a named comparator compound: approximately threefold higher affinity for the TPP riboswitch than did fragment 5
[1]; [9]
  Kd: 93 µM

## CCOC(=O)c1ccc(Cl)cc1 [compound 813]
[1]; [9]
  Kd: 600 µM

## OCc1ccc(Cl)cc1 [compound 814]
[1]; [9]
  Kd: 1300 µM

## NC(=O)c1ccc(Cl)cc1 [compound 815]
[1]; [9]
  Kd: 1800 µM

## NS(=O)(=O)c1ccc(Cl)cc1 [compound 816]
[1]; [9]
  Kd: 1300 µM

## CCS(=O)(=O)c1ccc(Cl)cc1 [compound 817]
[1]; [10]
  Kd (μM): no binding

## CN(C)C(=O)c1ccc(Cl)cc1 [compound 818]
[1]; [10]
  Kd (μM): no binding
